Measured values from patent US11773109B2, “Composition for hardening soft tissue” (The Catholic University of Korea Industry—Academic …, priority 2016, dated 2023).
“Also recorded” adds a separate entry of the source.

Experiments:
pancreas of mice [1] = assay: Tension (suture-holding capacity) of the mouse pancreas after treatment, Newton dynamometer; format: in vivo; details: for response vs control in vivo at 1000 µM: fold of control, read-out: increase of the tension of the pancreas compared to the control
Method: Specifically, it means a force which occurs in an organ in response to an external force exerted by stretching or pulling action. The measurement of the tension according to the present invention is performed using a dynamometer. More specifically, the tension is determined by measuring suture-holding capacity using a Newton dynamometer. At this time, the tension is calculated by adding the weight of the tissue.
(§1) More specifically, three mice were treated with 1 mM of each of the antibiotics shown above, and three mice were treated with phosphate buffered saline (PBS) as a control.
(2) Measurement of Tensile
The tension of the pancreas was measured using a dynamometer. Specifically, a pancreatic fragment having a size of 1×1×1.5 cm was prepared, and then silk 4-0 suture was passed through the tissue to form a knob, and suture-holding capacity was measured using a Newton dynamometer. At this time, the tension was calculated by adding the weight of the tissue.

pancreas of mice [2] = assay: Hardness (elastic modulus) of the mouse pancreas after treatment, hardness meter (Venustron); format: in vivo
Method: The measurement of the hardness according to the present invention is performed using a hardness meter, and measurement of the hardness of the pancreas is performed by measuring elastic modulus (EM) based on the Hooke's law and the Hertz's contact stress theory. The EM is a measure of the stiffness of an elastic material, and is expressed as the ratio of “the stress along the axis” and “the total strain along the axis within the range of the stress” by the Hooke's law.
as §1
(1) Measurement of Hardness
In order to measure the resistance of the pancreas using a hardness meter, the elastic modulus (EM) of the dissected pancreas was measured using Venustron (Axiom, Koriyama, Japan) based on the Hooke's law and the Hertz's contract stress theory, and the resistance of the pancreas was calculated using the following equation: […]
(F, force; v, Poisson's ratio; t, variant of compression; r, the diameter of a rigid spherical probe that presses an object vertically)

[3] = mouse pancreas treated with 1 mM of compound, compared to control (PBS / untreated), result in words
[4] = mouse pancreas treated with 1 mM of compound

Row | Structure (SMILES) | change in the tension of the pancreas compared to the control (pancreas of mice [1]; [3]) | change in the hardness of the pancreas compared to the control (pancreas of mice [2]; [3]) | response vs control in vivo at 1000 µM (pancreas of mice [1]; [4]) | increase of the hardness of the pancreas compared to the control (pancreas of mice [2]; mouse pancreas treated with 1 mM of compound, fold of control) | change in the tension of the pancreas compared to the control (pancreas of mice [1]; mouse, in vivo) | change in the hardness of the pancreas compared to the control (pancreas of mice [2]; mouse, in vivo)
1 | COc1cc(Cc2cnc(N)nc2N)cc(OC)c1OC [KRM-60088, 5-(3,4,5-trimethoxybenzyl)pyrimidine-2,4-diamine] | increased both the hardness and tension of the pancreas to significant levels | increased both the hardness and tension of the pancreas to significant levels |  |  |  | 
2 | Cc1cc(O)c2ccccc2n1 [KRP-00006, 4-hydroxy-2-methylquinoline] | increased both the hardness and tension | increased both the hardness and tension |  |  |  | 
3 | C=CCOC(=O)[C@@H]1N2C(=O)[C@@H](NC(=O)Cc3ccccc3)[C@H]2SC1(C)C [KRM-60028, Allyl (2S,5R,6R)-3,3-dimethyl-7-oxo-6-(2-phenylacetamido)-4-thia-1-azabicyclo[3.2.0]heptane-2-carboxylate] | both the hardness and tension of the pancreas increased | both the hardness and tension of the pancreas increased |  |  |  | 
4 | Oc1c(I)cc(I)c2cccnc12 [KRP-00004, 5,7-diiodo-8-hydroxyquinoline] | increased both the hardness and tension | increased both the hardness and tension | ≥ 150% |  |  | 
5 | CC1(C)S[C@@H]2[C@H](NC(=O)Cc3ccccc3)C(=O)N2[C@H]1C(=O)O.[K+] [KRM-60027, Potassium (2S,5R,6R)-3,3-dimethyl-7-oxo-6-(2-phenylacetamido)-4-thia-1-azabicyclo[3.2.0]heptane-2-carboxylate, reference compound] | significantly increasing the tension; also recorded: had the effects of increasing the tension and hardness; also recorded: increased the tension of the pancreas to a significant level; also recorded: excellent effect on an increase in the tension; also recorded: significant increase in the tension |  |  |  |  | 
6 | Oc1c(I)cc(Cl)c2cccnc12 [KRP-00003, 5-chloro-8-hydroxy-7-iodoquinoline] | increased both the hardness and tension | increased both the hardness and tension | ≥ 150% |  |  | 
7 | CC(=O)OCC1=C(C(=O)O)N2C(=O)[C@@H](N)[C@H]2SC1 [KRM-60081, (6R,7R)-3-(acetoxymethyl)-7-amino-8-oxo-5-thia-1-azabicyclo[4.2.0]oct-2-ene-2-carboxylic acid] | increased both the hardness and tension of the pancreas to significant levels | increased both the hardness and tension of the pancreas to significant levels |  |  |  | 
8 | CC(=O)N1CCN(c2ccc(OC[C@H]3CO[C@](Cn4ccnc4)(c4ccc(Cl)cc4Cl)O3)cc2)CC1 [KRM-60049, 1-(4-(4-(((2R,4S)-2-((1H-imidazol-1-yl)methyl)-2-(2,4-dichlorophenyl)-1,3-dioxolan-4-yl)methoxy)phenyl)piperazin-1-yl)ethanone, reference compound] | had the effects of increasing the tension and hardness; also recorded: increased both the hardness and tension of the pancreas to high levels | had the effects of increasing the tension and hardness; also recorded: increased both the hardness and tension of the pancreas to high levels |  |  |  | 
9 | CC(C)(S)[C@@H](N)C(=O)O [KRM-60037, (S)-2-amino-3-mercapto-3-methylbutanoic acid, reference compound] | had the effects of increasing the tension and hardness | had the effects of increasing the tension and hardness | 150% |  |  | 
10 | Oc1ccc2ccccc2n1 [KRP-00014, 2-hydroxyquinoline] | increased both the hardness and tension | increased both the hardness and tension | ≥ 150% |  |  | 
11 | Oc1ccc2ncccc2c1 [KRP-00013, 6-hydroxyquinoline] | increased both the hardness and tension | increased both the hardness and tension | ≥ 150% |  |  | 
12 | Oc1ccc(Cl)c2cccnc12 [KRP-00002, 5-chloro-8-hydroxyquinoline] | increased both the hardness and tension | increased both the hardness and tension | ≥ 150% |  |  | 
13 | Oc1ccnc2ccccc12 [KRP-00012, 4-hydroxyquinoline] | increased both the hardness and tension | increased both the hardness and tension | ≥ 150% |  |  | 
14 | O=C(O)c1ccc2cccnc2c1O [KRP-00016, 8-hydroxyquinoline-7-carboxylic acid] | increased both the hardness and tension | increased both the hardness and tension | ≥ 150% |  |  | 
15 | CC1(C)S[C@@H]2[C@H](NC(=O)Cc3ccccc3)C(=O)N2[C@H]1C(=O)OCCCC#N [KRM-60030, 3-cyanopropyl (2S,5R,6R)-3,3-dimethyl-7-oxo-6-(2-phenylacetamido)-4-thia-1-azabicyclo[3.2.0]heptane-2-carboxylate] | both the hardness and tension of the pancreas increased | both the hardness and tension of the pancreas increased | 200% | 1.5 times |  | 
16 | O=C(O)c1cnc2cc(Cl)ccc2c1O [KRP-00001, 7-chloro-4-hydroxy-3-quinolinecarboxylic acid] | increased both the hardness and tension | increased both the hardness and tension | ≥ 150% |  |  | 
17 | Oc1cccc2cccnc12 [KRM-60042, 8-hydroxyquinoline, reference compound] |  |  |  |  | significantly increases both the hardness and tension; also recorded: had the effects of increasing the tension and hardness; also recorded: increased both the hardness and tension of the pancreas to high levels; also recorded: excellent effects on increases in both the hardness and tension | significantly increases both the hardness and tension; also recorded: had the effects of increasing the tension and hardness; also recorded: increased both the hardness and tension of the pancreas to high levels; also recorded: excellent effects on increases in both the hardness and tension
18 | O=C(O)c1cc(O)c2cccc(O)c2n1 [KRP-00005, 4,8-dihydroxyquinoline-2-carboxylic acid] | increased both the hardness and tension | increased both the hardness and tension | ≥ 150% |  |  | 
19 | CCn1cc(C(=O)O)c(=O)c2cnc(N3CCNCC3)nc21 [KRM-60082, 8-ethyl-5-oxo-2-(piperazin-1-yl)-5,8-dihydropyrido[2,3-d]pyrimidine-6-carboxylic acid] | increased both the hardness and tension of the pancreas to significant levels | increased both the hardness and tension of the pancreas to significant levels |  |  |  | 
20 | CC(C)COC(=O)[C@@H]1N2C(=O)[C@@H](NC(=O)Cc3ccccc3)[C@H]2SC1(C)C [KRM-60078, Isobutyl (2S,5R,6R)-3,3-dimethyl-7-oxo-6-(2-phenylacetamido)-4-thia-1-azabicyclo[3.2.0]heptane-2-carboxylate] | increased both the hardness and tension of the pancreas to significant levels | increased both the hardness and tension of the pancreas to significant levels |  |  |  | 
21 | O=C(O)c1cnc2cc(C(F)(F)F)ccc2c1O [KRP-00009, 4-hydroxy-7-trifluoromethyl-3-quinolinecarboxylic acid] | increased both the hardness and tension | increased both the hardness and tension | ≥ 150% |  |  | 
22 | Oc1cc2ccccc2cn1 [KRP-00010, 3-hydroxyisoquinoline] |  |  | ~240% |  |  | 
